For 28 compounds, inhibition and Ki results are on record in patent US8742106B2 (Novartis AG, priority 2009, dated 2014).

One test has as its target human orexin 1 receptors (Homo sapiens (Human), UniProt O43613). Description: Calcium Accumulation in Cells (FLIPR), antagonism of orexin A. It counts as cell-based. To be noted: for inhibition at 10 µM: measured at a concentration of 10 μM of compound, read-out: FLIPR hOx1R % inhibition value; for Ki: antagonism of orexin A, Cheng-Prusoff corrected, read-out: FLIPR hOx1R Ki.

For another test, the target named is human orexin 2 receptors (Homo sapiens (Human), UniProt O43614). The test is described as above. To be noted: for Ki: antagonism of orexin A, Cheng-Prusoff corrected, read-out: FLIPR hOx2R Ki; for inhibition at 10 µM: measured at a concentration of 10 μM of compound, read-out: FLIPR hOx2R % inhibition value. The format is cell-based. The method in brief: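 Antagonism was measured as block of orexin A-evoked Ca²⁺ fluorescence (FLIPR), with orexin A added one hour after test compound (usually 10^−9–10^−5 M), which was first read alone for agonist activity. Human orexin 2 receptor cells were dye-loaded with 2 μM Fluo4-AM and 0.1 mM probenecid for 1 h.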

The inhibition is the relative decrease from the control value, in per cent. For orientation: Ki means the dissociation constant of the complex between target and ligand, obtained from inhibition or displacement.

Chain of human orexin 2 receptors (O43614 whole entry): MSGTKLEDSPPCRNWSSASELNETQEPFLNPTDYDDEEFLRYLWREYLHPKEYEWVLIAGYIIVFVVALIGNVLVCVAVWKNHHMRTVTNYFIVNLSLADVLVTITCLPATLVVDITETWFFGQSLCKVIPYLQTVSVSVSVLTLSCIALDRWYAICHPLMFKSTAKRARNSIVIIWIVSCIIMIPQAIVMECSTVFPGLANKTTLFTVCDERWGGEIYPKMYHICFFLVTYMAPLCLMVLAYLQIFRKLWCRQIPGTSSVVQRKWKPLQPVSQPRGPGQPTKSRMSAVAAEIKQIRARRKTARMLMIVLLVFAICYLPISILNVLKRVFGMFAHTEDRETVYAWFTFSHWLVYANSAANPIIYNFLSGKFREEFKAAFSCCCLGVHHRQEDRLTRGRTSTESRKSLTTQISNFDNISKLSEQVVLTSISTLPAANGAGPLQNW
Chain of human orexin 1 receptors (O43613 whole entry): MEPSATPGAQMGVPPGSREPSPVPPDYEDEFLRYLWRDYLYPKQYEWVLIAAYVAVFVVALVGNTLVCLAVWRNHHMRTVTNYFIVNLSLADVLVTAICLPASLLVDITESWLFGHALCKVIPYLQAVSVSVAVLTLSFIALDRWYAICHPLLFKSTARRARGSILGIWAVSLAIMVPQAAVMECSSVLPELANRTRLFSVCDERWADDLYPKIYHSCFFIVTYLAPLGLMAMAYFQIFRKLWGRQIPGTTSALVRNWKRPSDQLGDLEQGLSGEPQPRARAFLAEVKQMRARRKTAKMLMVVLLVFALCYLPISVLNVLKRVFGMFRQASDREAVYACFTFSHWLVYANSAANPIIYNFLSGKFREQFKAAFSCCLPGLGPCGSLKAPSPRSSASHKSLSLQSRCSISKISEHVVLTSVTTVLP

Consider `COc1ccc(C(C)NC(=O)COc2cc(C)c3c(C(C)C)nn(C)c3n2)cn1` (centres unmarked) [Example 6.28, 2-(3-isopropyl-1,4-dimethyl-1H-pyrazolo[3,4-b]pyridin-6-yloxy)-N-(1-(6-methoxypyridin-3-yl)ethyl)acetamide], for which the inhibition at 10 µM on human orexin 1 receptors was determined as 39%. Also, the inhibition constant (Ki) on human orexin 2 receptors worked out at 1220 nM.
Consider `C[C@H](NC(=O)CNc1cc(C(F)(F)F)c2c(-c3ccccc3)nn(C)c2n1)c1ccccc1` [Example 3.1, (S)-2-(1-methyl-3-phenyl-4-(trifluoromethyl)-1H-pyrazolo[3,4-b]pyridin-6-ylamino)-N-(1-phenylethyl)acetamide], for which the inhibition constant Ki came to 357 nM at human orexin 1 receptors and 1140 nM at human orexin 2 receptors.
Regarding `Cc1cc(OCC(=O)NC2CCCc3ncccc32)nc2c1c(C1CC1)nn2C` (centres unmarked) [Example 7.8, 2-(3-cyclopropyl-1H-dimethyl-1H-pyrazolo[3,4-b]pyridin-6-yloxy)-N-(5,6,7,8-tetrahydroquinolin-5-yl)acetamide], the inhibition at 10 µM amounted to 26% on human orexin 1 receptors and 20% at human orexin 2 receptors.
As for `Cc1cc(OCC(=O)N[C@@H](C)CCc2ccccc2)nc2c1c(C1CC1)nn2C` [Example 7.26, (S)-2-(3-cyclopropyl-1,4-dimethyl-1H-pyrazolo[3,4-b]pyridin-6-yloxy)-N-(4-phenylbutan-2-yl)acetamide], the results for the Ki at human orexin 1 receptors and on human orexin 2 receptors were 1640 nM and 184 nM, respectively.
Turning to `Cc1cc(OCC(=O)NC2CCCc3c2cnn3C)nc2c1c(C1CC1)nn2C` (centres unmarked) [Example 7.24, 2-(3-cyclopropyl-1,4-dimethyl-1H-pyrazolo[3,4-b]pyridin-6-yloxy)-N-(1-methyl-4,5,6,7-tetrahydro-1H-indazol-4-yl)acetamide], the inhibition at 10 µM was determined as 28% at human orexin 1 receptors and 25% on human orexin 2 receptors.
For the compound `Cn1nc(-c2ccccc2)c2c(C(F)(F)F)cc(OCC(=O)NCc3cccc(F)c3)nc21` [Example 1.8, N-(3-fluorobenzyl)-2-(1-methyl-3-phenyl-4-(trifluoromethyl)-1H-pyrazolo[3,4-b]pyridin-6-yloxy)acetamide], the inhibition at 10 µM on human orexin 1 receptors stood at 39%. Moreover, on human orexin 2 receptors, the inhibition constant (Ki) stood at 1620 nM.
Take `C[C@H](NC(=O)COc1cc(C(F)(F)F)c2c(-c3ccccc3)n[nH]c2n1)c1ccccc1` [Example 1.2, (S)-2-(3-phenyl-4-(trifluoromethyl)-1H-pyrazolo[3,4-b]pyridin-6-yloxy)-N-(1-phenylethyl)acetamide]: the results for the inhibition constant Ki at human orexin 1 receptors and at human orexin 2 receptors were 200 nM and 43 nM, respectively.
Take `CC(C)CCNC(=O)COc1cc(C(F)(F)F)c2c(-c3ccccc3)nn(C)c2n1` [Example 1.68, N-isopentyl-2-(1-methyl-3-phenyl-4-(trifluoromethyl)-1H-pyrazolo[3,4-b]pyridin-6-yloxy)acetamide]: the inhibition at 10 µM on human orexin 1 receptors was less than 10%; on human orexin 2 receptors it was 16%.
Regarding `Cn1nc(-c2ccccc2)c2c(C(F)(F)F)cc(OCC(=O)NCc3cccc(Cl)c3)nc21` [Example 1.43, N-(3-chlorobenzyl)-2-(1-methyl-3-phenyl-4-(trifluoromethyl)-1H-pyrazolo[3,4-b]pyridin-6-yloxy)acetamide], the inhibition at 10 µM on human orexin 1 receptors turned out to be 24%. On human orexin 2 receptors, the inhibition constant Ki was determined as 2060 nM.
As to `Cc1nn(C)c(C)c1C(C)NC(=O)COc1cc(C)c2c(C3CC3)nn(C)c2n1` (centres unmarked) [Example 1.72, 2-(3-cyclopropyl-1,4-dimethyl-1H-pyrazolo[3,4-b]pyridin-6-yloxy)-N-(1-(1,3,5-trimethyl-1H-pyrazol-4-yl)ethyl)acetamide], the Ki on human orexin 1 receptors worked out at 2120 nM; on human orexin 2 receptors, 1230 nM.
Regarding `Cc1cc(OCC(=O)NC(C)c2cccnc2)nc2c1c(-c1ccccc1)nn2C` (centres unmarked) [Example 1.64, 2-(1,4-dimethyl-3-phenyl-1H-pyrazolo[3,4-b]pyridin-6-yloxy)-N-(1-(pyridin-3-yl)ethyl)acetamide], the inhibition at 10 µM came out at 26% on human orexin 1 receptors and 39% at human orexin 2 receptors.
With `C[C@H](NC(=O)COc1cc(C(F)(F)F)c2c(-c3ccccc3)noc2n1)c1ccccc1` [Example 6.78, (S)-2-(3-phenyl-4-(trifluoromethyl)isoxazolo[5,4-b]pyridin-6-yloxy)-N-(1-phenylethyl)acetamide], the inhibition at 10 µM at human orexin 1 receptors is 43%. Further, the inhibition constant (Ki) on human orexin 2 receptors came out at 1830 nM.
On to `Cn1nc(-c2ccccc2)c2c(C(F)(F)F)cc(OCC(=O)NCc3ccc(Cl)cc3)nc21` [Example 1.11, N-(4-chlorobenzyl)-2-(1-methyl-3-phenyl-4-(trifluoromethyl)-1H-pyrazolo[3,4-b]pyridin-6-yloxy)acetamide], for which the Ki on human orexin 1 receptors is 2010 nM; on human orexin 2 receptors, 251 nM.
On to `C[C@H](NC(=O)COc1cc(C(F)(F)F)c2c(C3CCCCC3)nn(C)c2n1)c1ccccc1` [Example 1.51, (S)-2-(3-cyclohexyl-1-methyl-4-(trifluoromethyl)-1H-pyrazolo[3,4-b]pyridin-6-yloxy)-N-(1-phenylethyl)acetamide], for which the Ki at human orexin 1 receptors is 471 nM; on human orexin 2 receptors it was 364 nM.
In the case of `Cc1ccc([C@H](C)NC(=O)COc2nc3c(cc2C)c(C2CC2)nn3C)cc1` [Example 6.60, (S)-2-(3-cyclopropyl-1,5-dimethyl-1H-pyrazolo[3,4-b]pyridin-6-yloxy)-N-(1-p-tolylethyl)acetamide], on human orexin 1 receptors, the inhibition at 10 µM turned out to be 11%. At human orexin 2 receptors, the Ki came to 1170 nM.
For `COc1ccc(C(C)(C)NC(=O)COc2cc(C)c3c(C4CC4)nn(C)c3n2)cc1` [Example 6.62, 2-(3-cyclopropyl-1,4-dimethyl-1H-pyrazolo[3,4-b]pyridin-6-yloxy)-N-(2-(4-methoxyphenyl)propan-2-yl)acetamide], the Ki came to 626 nM at human orexin 1 receptors and 160 nM at human orexin 2 receptors.
Regarding `Cc1csc(C(C)NC(=O)COc2cc(C)c3c(C4CC4)nn(C)c3n2)n1` (centres unmarked) [Example 7.22, 2-(3-cyclopropyl-1,4-dimethyl-1H-pyrazolo[3,4-b]pyridin-6-yloxy)-N-(1-(4-methylthiazol-2-yl)ethyl)acetamide], the inhibition at 10 µM on human orexin 1 receptors was 40%; on human orexin 2 receptors, 32%.
For `Cc1ccc(C(C)NC(=O)COc2cc(C)c3c(C4CC4)nn(C)c3n2)cn1` (centres unmarked) [Example 6.55], on human orexin 1 receptors, the inhibition at 10 µM was 53%. In addition, on human orexin 2 receptors, the Ki was 525 nM.
As to `Cc1cc(OCC(=O)NC(C)c2cc(CC(C)(C)C)on2)nc2c1c(C1CC1)nn2C` (centres unmarked) [Example 6.48, 2-(3-cyclopropyl-1,4-dimethyl-1H-pyrazolo[3,4-b]pyridin-6-yloxy)-N-(1-(5-neopentylisoxazol-3-yl)ethyl)acetamide], the inhibition at 10 µM on human orexin 1 receptors and at human orexin 2 receptors was less than 10% in each case.
As to `CCn1cnnc1C(C)NC(=O)COc1cc(C(F)(F)F)c2c(-c3ccccc3)nn(C)c2n1` (centres unmarked) [Example 1.35, N-(1-(4-ethyl-4H-1,2,4-triazol-3-yl)ethyl)-2-(1-methyl-3-phenyl-4-(trifluoromethyl)-1H-pyrazolo[3,4-b]pyridin-6-yloxy)acetamide], the inhibition at 10 µM on human orexin 1 receptors and on human orexin 2 receptors was 22% throughout.
Consider `COc1ccc(C(C)NC(=O)COc2cc(C)c3c(C4CC4)nn(C)c3n2)cn1` (centres unmarked) [Example 6.47, 2-(3-cyclopropyl-1,4-dimethyl-1H-pyrazolo[3,4-b]pyridin-6-yloxy)-N-(1-(6-methoxypyridin-3-yl)ethyl)acetamide], for which the inhibition constant Ki at human orexin 1 receptors was determined as 1490 nM; at human orexin 2 receptors, 747 nM.
`COc1ccc([C@H](C)NC(=O)COc2nc3c(c(C4CC4)nn3C)c(C)c2C)cc1` [Example 6.74, (S)-2-(3-cyclopropyl-1,4,5-trimethyl-1H-pyrazolo[3,4-b]pyridin-6-yloxy)-N-(1-(4-methoxyphenyl)ethyl)acetamide]: the inhibition at 10 µM was 23% at human orexin 1 receptors and 38% at human orexin 2 receptors.
With `Cc1cccnc1CNC(=O)COc1cc(C)c2c(C3CC3)nn(C)c2n1` [Example 7.18, 2-(3-cyclopropyl-1,4-dimethyl-1H-pyrazolo[3,4-b]pyridin-6-yloxy)-N-((3-methylpyridin-2-yl)methyl)acetamide], the figures for the inhibition at 10 µM at human orexin 1 receptors and at human orexin 2 receptors were less than 10% and 11%, respectively.
`CCOc1ccccc1CNC(=O)COc1cc(C(F)(F)F)c2c(-c3ccccc3)nn(C)c2n1` [Example 1.7, N-(2-ethoxybenzyl)-2-(1-methyl-3-phenyl-4-(trifluoromethyl)-1H-pyrazolo[3,4-b]pyridin-6-yloxy)acetamide]: the inhibition constant (Ki) was found to be 1020 nM on human orexin 1 receptors and 337 nM on human orexin 2 receptors.
Regarding `Cc1cccc(C(C)NC(=O)COc2cc(C)c3c(C4CC4)nn(C)c3n2)n1` (centres unmarked) [Example 7.7, 2-(3-cyclopropyl-1,4-dimethyl-1H-pyrazolo[3,4-b]pyridin-6-yloxy)-N-(1-(6-methylpyridin-2-yl)ethyl)acetamide], the inhibition at 10 µM on human orexin 1 receptors stood at 32%; at human orexin 2 receptors, 21%.
Turning to `C[C@H](NC(=O)COc1cc(C(F)(F)F)c2c(-c3cccc(Cl)c3)nn(C)c2n1)c1ccccc1` [Example 1.57, (S)-2-(3-(3-chlorophenyl)-1-methyl-4-(trifluoromethyl)-1H-pyrazolo[3,4-b]pyridin-6-yloxy)-N-(1-phenylethyl)acetamide], the figures for the Ki on human orexin 1 receptors and at human orexin 2 receptors were 66 nM and 106 nM, respectively.
The matching figures for `Cc1cc(OCC(=O)NC(C)c2nc3ccccc3s2)nc2c1c(C1CC1)nn2C` (centres unmarked) [Example 7.23, N-(1-(benzo[d]thiazol-2-yl)ethyl)-2-(3-cyclopropyl-1,4-dimethyl-1H-pyrazolo[3,4-b]pyridin-6-yloxy)acetamide]: 564 nM and 150 nM.
`Cc1cc(OCC(=O)NCc2ccccc2Cl)nc2c1c(-c1ccccc1)nn2C` [Example 1.14, N-(2-chlorobenzyl)-2-(1,4-dimethyl-3-phenyl-1H-pyrazolo[3,4-b]pyridin-6-yloxy)acetamide]: on human orexin 1 receptors, the Ki turned out to be 422 nM. Moreover, the inhibition at 10 µM at human orexin 2 receptors came out at 33%.
